# Test system: HOP-62 multicell spheroids with HUVEC/MSC, viability
# Test: Anticancer human tumor HOP-62 cell line growth inhibition [KRAS2];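 note: viability read after a week of compound exposure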;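 for viability, T/C: 100% = DMSO vehicle-treated spheroids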
# Settings: for IC50: curve of first compound; for viability, T/C: stronger effect = lower value
# Summary of the method: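 Combination screen of spheroid viability in tumor-cell co-cultures with endothelial (HUVEC) and mesenchymal stem cell stroma. Each agent was tested in half-log dilutions, topping at clinical Cmax or at 10 microM without a known Cmax.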
# [1] = second compound 0.0316 µM, first compound 0.0316 µM
# [2] = second compound 0.0316 µM, first compound 0.1 µM
# [3] = second compound 0.0316 µM, first compound 0.316 µM
# [4] = second compound 0.0316 µM, first compound 1 µM
# [5] = second compound 0.0316 µM, first compound 3.16 µM
# [6] = second compound 0.0316 µM, first compound 10 µM
# [7] = second compound 0.1 µM, first compound 0.0316 µM
# [8] = second compound 0.1 µM, first compound 0.1 µM
# [9] = second compound 0.1 µM, first compound 0.316 µM
# [10] = second compound 0.1 µM, first compound 1 µM
# [11] = second compound 0.1 µM, first compound 3.16 µM
# [12] = second compound 0.1 µM, first compound 10 µM
# [13] = second compound 0.316 µM, first compound 0.0316 µM
# [14] = second compound 0.316 µM, first compound 0.1 µM
# [15] = second compound 0.316 µM, first compound 0.316 µM
# [16] = second compound 0.316 µM, first compound 1 µM
# [17] = second compound 0.316 µM, first compound 3.16 µM
# [18] = second compound 0.316 µM, first compound 10 µM
# [19] = second compound 1 µM, first compound 0.0316 µM
# [20] = second compound 1 µM, first compound 0.1 µM
# [21] = second compound 1 µM, first compound 0.316 µM
# [22] = second compound 1 µM, first compound 1 µM
# [23] = second compound 1 µM, first compound 3.16 µM
# [24] = second compound 1 µM, first compound 10 µM
# [25] = second compound 3.16 µM, first compound 0.0316 µM
# [26] = second compound 3.16 µM, first compound 0.1 µM
# [27] = second compound 3.16 µM, first compound 0.316 µM
# [28] = second compound 3.16 µM, first compound 1 µM
# [29] = second compound 3.16 µM, first compound 3.16 µM
# [30] = second compound 3.16 µM, first compound 10 µM
Structure (SMILES),IC50 (second compound 0.0316 µM) [nM],IC50 (second compound 0.1 µM) [nM],IC50 (second compound 0.316 µM) [nM],IC50 (second compound 1 µM) [nM],IC50 (second compound 3.16 µM) [nM],"viability, T/C [1] [%]","viability, T/C [2] [%]","viability, T/C [3] [%]","viability, T/C [4] [%]","viability, T/C [5] [%]","viability, T/C [7] [%]","viability, T/C [8] [%]","viability, T/C [9] [%]","viability, T/C [10] [%]","viability, T/C [11] [%]","viability, T/C [13] [%]","viability, T/C [14] [%]","viability, T/C [15] [%]","viability, T/C [16] [%]","viability, T/C [17] [%]",other results
CC(C)NCC(C(=O)N1CCN(c2ncnc3c2C(C)CC3O)CC1)c1ccc(Cl)cc1 (stereo not given) + C=CC(=O)N1CCN(c2nc(OCC3CCCN3C)nc3c2CCN(c2cccc4cccc(C)c24)C3)CC1CC#N,173,48,< 31.6,< 31.6,< 31.6,76.8,57.4,42.4,18.6,8.82,55.9,39.7,16.1,9.65,6.16,39.4,29.7,15.2,9.41,5.86,"viability, T/C [6]: 6.71%; viability, T/C [12]: 5.4%; viability, T/C [18]: 5.37%; viability, T/C [19]: 29.8%; viability, T/C [20]: 21%; viability, T/C [21]: 14.1%; viability, T/C [22]: 7.91%; viability, T/C [23]: 5.78%; viability, T/C [24]: 5%; viability, T/C [25]: 0.51%; viability, T/C [26]: 0.35%; viability, T/C [27]: 0.44%; viability, T/C [28]: 0.32%; viability, T/C [29]: 0.31%; viability, T/C [30]: 0.41%"
CC1(C)CCC(CN2CCN(c3ccc(C(=O)NS(=O)(=O)c4ccc(NCC5CCOCC5)c([N+](=O)[O-])c4)c(Oc4cnc5[nH]ccc5c4)c3)CC2)=C(c2ccc(Cl)cc2)C1 + C=CC(=O)N1CCN(c2nc(OCC3CCCN3C)nc3c2CCN(c2cccc4cccc(C)c24)C3)CC1CC#N,1510,< 31.6,< 31.6,< 31.6,< 31.6,58.8,54.1,54.9,56,39.5,48.9,41.4,37.8,36.4,37.2,36.6,41.6,26.4,38.2,26.9,"viability, T/C [6]: 22.7%; viability, T/C [12]: 21.6%; viability, T/C [18]: 16%; viability, T/C [19]: 24.6%; viability, T/C [20]: 22.6%; viability, T/C [21]: 27.1%; viability, T/C [22]: 22.9%; viability, T/C [23]: 24.1%; viability, T/C [24]: 5.4%; viability, T/C [25]: 1.22%; viability, T/C [26]: 0.15%; viability, T/C [27]: 0.14%; viability, T/C [28]: 0.16%; viability, T/C [29]: 0.14%; viability, T/C [30]: 0.18%"
CC1COCCN1c1cc(-c2ccnn2C)c2ccnc(-c3ccn[nH]3)c2n1 (stereo not given) + C=CC(=O)N1CCN(c2nc(OCC3CCCN3C)nc3c2CCN(c2cccc4cccc(C)c24)C3)CC1CC#N,39.9,30.9,12.2,< 10,< 10,55.4,28.6,17.6,14,12.8,49.3,22.7,12,11.7,10,30.3,19.4,10.9,9.7,7.82,"viability, T/C (second compound 0.0316 µM, first compound 0.01 µM): 94.9%; viability, T/C (second compound 0.1 µM, first compound 0.01 µM): 79.4%; viability, T/C (second compound 0.316 µM, first compound 0.01 µM): 54%; viability, T/C (second compound 1 µM, first compound 0.01 µM): 27.2%; viability, T/C [19]: 18.6%; viability, T/C [20]: 9.29%; viability, T/C [21]: 8.75%; viability, T/C [22]: 8.51%; viability, T/C [23]: 7.02%; viability, T/C (second compound 3.16 µM, first compound 0.01 µM): 2.88%; viability, T/C [25]: 1.59%; viability, T/C [26]: 0.93%; viability, T/C [27]: 0.21%; viability, T/C [28]: 0.17%; viability, T/C [29]: 3.92%"

# Reference: PubChem BioAssay AID1963858 (Molecular Pharmacology Branch, DTP, NCI, 2024)
